For series [1] the following is noted: human, in vivo, po, 3600 mg.
Method: The capsule having the self-emulsifying composition of the present invention containing 80% by weight of EPA-E as its content was orally administered to human (12 cases, healthy adult males of 20 to 40 years old with a body weight of 55.0 to 77.0 kg and a BMI of 18.5 or more but less than 25.0) under fasting conditions to evaluate the change of blood EPA concentration. The self-emulsifying composition in an amount corresponding to 1800 mg of EPA-E was orally administered in single dose to each human who had been fasted since 10 hours or more before the administration by using 200 mL of water in the morning under fasting. The blood was collected 0.5, 1, 1.5, 2, 3, 4, 5, 6, 7, 8, 9, 10, 12, 15, 18, 24, 48 and 72 hours after the administration. […] After having stored the resulting plasma at a temperature not higher than −20° C. in frozen state, concentration of the EPA in the plasma was measured by LC/MS/MS (method in which a sample is isolated by liquid chromatography, then subjected to mass spectrometry to conduct separation and measurement thereon). […]
This test was conducted on 6 humans. […] In the calculation of each parameter, correction was made by subtracting the blood EPA concentration before the administration from the measured blood concentration.
For series [2] the following is noted: human, in vivo, po, 1800 mg.
Method: The capsule having the self-emulsifying composition of the present invention containing 80% by weight of EPA-E as its content was orally administered to human (12 cases, healthy adult males of 20 to 40 years old with a body weight of 55.0 to 77.0 kg and a BMI of 18.5 or more but less than 25.0) under fasting conditions to evaluate the change of blood EPA concentration. The self-emulsifying composition in an amount corresponding to 1800 mg of EPA-E was orally administered in single dose to each human who had been fasted since 10 hours or more before the administration by using 200 mL of water in the morning under fasting. The blood was collected 0.5, 1, 1.5, 2, 3, 4, 5, 6, 7, 8, 9, 10, 12, 15, 18, 24, 48 and 72 hours after the administration. Immediately after the collection, the blood was cooled on ice, and centrifuged at 2000×g at 4° C. for 10 minutes to separately collect the plasma. After having stored the resulting plasma at a temperature not higher than −20° C. in frozen state, concentration of the EPA in the plasma was measured by LC/MS/MS (method in which a sample is isolated by liquid chromatography, then subjected to mass spectrometry to conduct separation and measurement thereon). […]
In the calculation of each parameter, correction was made by subtracting the blood EPA concentration before the administration from the measured blood concentration.

The structures appear in SMILES notation. Where two headings read alike, the source gives them in different places.

As usually defined, the Cmax is the peak of the concentration-time curve. On to `CC/C=C\C/C=C\C/C=C\C/C=C\C/C=C\CCCC(=O)OCC` [EPA-E stock solution, Ethyl eicosapentaenoate], for which the highest concentration (Cmax) in series [1] is 3600 ng/mL; in series [2], 4600 ng/mL.

The values are drawn from patent US11911480B2, “Self-emulsifying composition of ω-3 fatty acid” (priority 2015, dated 2024).
